Test results: US20090054411A1, “4-ANILINOQUINOLINE-3-CARBOXAMIDES AS CSF-1R KINASE INHIBITORS” (AstraZeneca AB, priority 2006, published 2009)

Target: T1, CSF-1R (Homo sapiens, UniProt P07333)
T1 construct: His-tagged kinase domain of CSF-1R (i.e., amino acids 568-912, GeneBank ID NM_005211); His; made in house; host or cells: baculovirus-infected SF+Express insect cells
T1 sequence (P07333 568-912): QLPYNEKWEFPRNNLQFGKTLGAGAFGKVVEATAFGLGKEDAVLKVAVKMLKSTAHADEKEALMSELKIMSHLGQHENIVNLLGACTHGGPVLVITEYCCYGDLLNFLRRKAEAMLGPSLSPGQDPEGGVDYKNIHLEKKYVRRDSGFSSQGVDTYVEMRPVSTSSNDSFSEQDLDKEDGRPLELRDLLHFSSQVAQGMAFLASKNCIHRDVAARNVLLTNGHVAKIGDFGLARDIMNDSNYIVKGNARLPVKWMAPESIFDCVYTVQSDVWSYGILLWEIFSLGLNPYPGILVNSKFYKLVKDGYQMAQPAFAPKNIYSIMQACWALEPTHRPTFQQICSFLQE
Assay: CSF-1R In Vitro AlphaScreen Assay
Type: biochemical
Conditions: purified His-tagged kinase domain of CSF-1R, pEY substrate, 90 μM ATP
Description: Activity of purified CSF-1R was determined in vitro using an Amplified Luminescent Proximity Homogeneous Assay (ALPHA)(Perkin Elmer), which measures phosphorylation of the CSF-1R substrate, biotinylated poly-glutamine-tyrosine peptide (pEY-HTRF CisBio 61GT0BLD), as described below.
The phosphorylation of the CSF-1R substrate in the presence and absence of the compound of interest was determined. […] Plates were incubated at 25° C. for 18 hours in the dark. Phosphorylated substrate was detected by an EnVision plate reader (Perkin Elmer) 680 nm excitation, 520-620 nm emission. Data was graphed and IC50s calculated using Excel Fit (Microsoft).

IC50 [nM] | Structure (SMILES)
23 | COc1cc2c(Nc3cccc(Cl)c3Cl)c(C(N)=O)cnc2cc1N1CCN(C)CC1 [Example 9]
154 | NC(=O)c1cnc2cc(F)c(N3CCOCC3)cc2c1Nc1ccc(F)cc1F [Example 18]
